The results in this text go back to the supplement of paper PMC10307832.

Test in all cases: relative viability (nuclei count vs DMSO), 5 days (fraction); higher = more cells survive
Compound in the assay “Vorinostat + Palbociclib”: O=C(CCCCCCC(=O)Nc1ccccc1)NO [Vorinostat] + CC(=O)c1c(C)c2cnc(Nc3ccc(N4CCNCC4)cn3)nc2n(C2CCCC2)c1=O [Palbociclib] (partner 0.5 µM)
Summed up: (§1)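 A single step with final 0.05% Triton X-100, 1% formaldehyde and 1 ug/ml Hoechst fixed the cells and stained nuclei 5 days after treatment. Lung cancer cell lines in 1536-well plates had been treated by pin tool the day after seeding with one drug alone or a fixed anchor-drug dose plus five library-drug doses (not always all listed) in √10 steps, and nuclei were counted on 4× images. Relative viability is the ratio of nuclei in treated wells to nuclei in vehicle wells, taken as the median of duplicate plates.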

Compound in the assay “Vorinostat + Bortezomib”: O=C(CCCCCCC(=O)Nc1ccccc1)NO [Vorinostat] + CC(C)C[C@H](NC(=O)[C@H](Cc1ccccc1)NC(=O)c1cnccn1)B(O)O [Bortezomib] (partner 0.002 µM)
Summed up:
as §1

Compound in the assay “Vorinostat + Foretinib”: O=C(CCCCCCC(=O)Nc1ccccc1)NO [Vorinostat] + COc1cc2c(Oc3ccc(NC(=O)C4(C(=O)Nc5ccc(F)cc5)CC4)cc3F)ccnc2cc1OCCCN1CCOCC1 [Foretinib] (partner 0.25 µM)
Summed up:
as §1

Compound in the assay “Vorinostat + Pictilisib”: O=C(CCCCCCC(=O)Nc1ccccc1)NO [Vorinostat] + CS(=O)(=O)N1CCN(Cc2cc3nc(-c4cccc5[nH]ncc45)nc(N4CCOCC4)c3s2)CC1 [Pictilisib] (partner 1 µM)
Summed up:
as §1

Compound in the assay “Vorinostat + Crizotinib”: O=C(CCCCCCC(=O)Nc1ccccc1)NO [Vorinostat] + C[C@@H](Oc1cc(-c2cnn(C3CCNCC3)c2)cnc1N)c1c(Cl)ccc(F)c1Cl [Crizotinib] (partner 1 µM)
Summed up:
as §1

Take PC-3 [JPC-3]: the relative viability worked out at 0.521 in the assay with Vorinostat + Palbociclib (first compound 0.253 µM); 0.506 with Vorinostat + Palbociclib (first compound 0.8 µM); 0.45 with Vorinostat + Palbociclib (first compound 2.53 µM); 0.378 with Vorinostat + Palbociclib (first compound 8 µM); 0.846 with Vorinostat + Bortezomib (first compound 0.253 µM); 0.85 in the assay with Vorinostat + Bortezomib (first compound 0.8 µM). The relative viability worked out at 0.398 with Vorinostat + Bortezomib (first compound 2.53 µM); 0.216 with Vorinostat + Bortezomib (first compound 8 µM); 1.02 with Vorinostat + Foretinib (first compound 0.253 µM); 1.03 with Vorinostat + Foretinib (first compound 0.8 µM); 0.316 with Vorinostat + Foretinib (first compound 2.53 µM); 0.239 with Vorinostat + Foretinib (first compound 8 µM). The relative viability was found to be 0.779 with Vorinostat + Pictilisib (first compound 0.253 µM); 0.582 with Vorinostat + Pictilisib (first compound 0.8 µM); 0.423 with Vorinostat + Pictilisib (first compound 2.53 µM); 0.309 with Vorinostat + Pictilisib (first compound 8 µM); 0.955 with Vorinostat + Crizotinib (first compound 0.253 µM); 0.97 in the assay with Vorinostat + Crizotinib (first compound 0.8 µM). In addition, the relative viability in the assay with Vorinostat + Crizotinib (first compound 2.53 µM) was found to be 0.41; with Vorinostat + Crizotinib (first compound 8 µM), 0.228.
PC-14: the relative viability was found to be 0.56 in the assay with Vorinostat + Palbociclib (first compound 0.253 µM); 0.351 with Vorinostat + Palbociclib (first compound 0.8 µM); 0.0802 with Vorinostat + Palbociclib (first compound 2.53 µM); 0.0377 with Vorinostat + Palbociclib (first compound 8 µM); 0.913 with Vorinostat + Bortezomib (first compound 0.253 µM); 0.847 in the assay with Vorinostat + Bortezomib (first compound 0.8 µM). The relative viability with Vorinostat + Bortezomib (first compound 2.53 µM) came out at 0.102; with Vorinostat + Bortezomib (first compound 8 µM), 0.073; in the assay with Vorinostat + Foretinib (first compound 0.253 µM), 1.15; in the assay with Vorinostat + Foretinib (first compound 0.8 µM), 1.04; in the assay with Vorinostat + Foretinib (first compound 2.53 µM) it was 0.62; in the assay with Vorinostat + Foretinib (first compound 8 µM), 0.0829. Also, the relative viability with Vorinostat + Pictilisib (first compound 0.253 µM) amounted to 0.959; with Vorinostat + Pictilisib (first compound 0.8 µM), 0.438; with Vorinostat + Pictilisib (first compound 2.53 µM) it was 0.0673; in the assay with Vorinostat + Pictilisib (first compound 8 µM) it was 0.0418; in the assay with Vorinostat + Crizotinib (first compound 0.253 µM) it was 0.888; with Vorinostat + Crizotinib (first compound 0.8 µM) it was 0.865. The results for the relative viability with Vorinostat + Crizotinib (first compound 2.53 µM) and with Vorinostat + Crizotinib (first compound 8 µM) were 0.215 and 0.0683, respectively.
On to RERF-LC-KJ, for which the relative viability in the assay with Vorinostat + Palbociclib (first compound 0.253 µM) is 1.09; with Vorinostat + Palbociclib (first compound 0.8 µM), 0.929; with Vorinostat + Palbociclib (first compound 2.53 µM), 0.333; in the assay with Vorinostat + Palbociclib (first compound 8 µM), 0.211; with Vorinostat + Bortezomib (first compound 0.253 µM) it was 1.2; with Vorinostat + Bortezomib (first compound 0.8 µM) it was 1.04. Further, the relative viability with Vorinostat + Bortezomib (first compound 2.53 µM) is 0.423; with Vorinostat + Bortezomib (first compound 8 µM), 0.286; with Vorinostat + Foretinib (first compound 0.253 µM), 1; in the assay with Vorinostat + Foretinib (first compound 0.8 µM), 0.791; in the assay with Vorinostat + Foretinib (first compound 2.53 µM) it was 0.743; in the assay with Vorinostat + Foretinib (first compound 8 µM) it was 0.248. Further, the relative viability with Vorinostat + Pictilisib (first compound 0.253 µM) amounted to 0.562; with Vorinostat + Pictilisib (first compound 0.8 µM), 0.474; in the assay with Vorinostat + Pictilisib (first compound 2.53 µM) it was 0.182; with Vorinostat + Pictilisib (first compound 8 µM), 0.164; with Vorinostat + Crizotinib (first compound 0.253 µM), 0.813; in the assay with Vorinostat + Crizotinib (first compound 0.8 µM), 0.744. The relative viability with Vorinostat + Crizotinib (first compound 2.53 µM) is 0.448; with Vorinostat + Crizotinib (first compound 8 µM), 0.156.
Consider SK-LU-1, for which the relative viability with Vorinostat + Palbociclib (first compound 0.253 µM) came to 0.438; with Vorinostat + Palbociclib (first compound 0.8 µM) it was 0.363; with Vorinostat + Palbociclib (first compound 2.53 µM) it was 0.32; in the assay with Vorinostat + Palbociclib (first compound 8 µM), 0.177; with Vorinostat + Bortezomib (first compound 0.253 µM), 0.678; in the assay with Vorinostat + Bortezomib (first compound 0.8 µM), 1.22. In addition, the relative viability is 0.248 with Vorinostat + Bortezomib (first compound 2.53 µM); 0.163 in the assay with Vorinostat + Bortezomib (first compound 8 µM); 0.881 with Vorinostat + Foretinib (first compound 0.253 µM); 0.829 with Vorinostat + Foretinib (first compound 0.8 µM); 0.385 in the assay with Vorinostat + Foretinib (first compound 2.53 µM); 0.137 in the assay with Vorinostat + Foretinib (first compound 8 µM). Moreover, the relative viability turned out to be 0.595 with Vorinostat + Pictilisib (first compound 0.253 µM); 0.55 with Vorinostat + Pictilisib (first compound 0.8 µM); 0.351 with Vorinostat + Pictilisib (first compound 2.53 µM); 0.133 in the assay with Vorinostat + Pictilisib (first compound 8 µM); 0.921 in the assay with Vorinostat + Crizotinib (first compound 0.253 µM); 0.672 with Vorinostat + Crizotinib (first compound 0.8 µM). The relative viability with Vorinostat + Crizotinib (first compound 2.53 µM) was found to be 0.43; with Vorinostat + Crizotinib (first compound 8 µM), 0.164.
Take SW 1573: the relative viability with Vorinostat + Palbociclib (first compound 0.253 µM) was determined as 0.433; with Vorinostat + Palbociclib (first compound 0.8 µM) it was 0.305; with Vorinostat + Palbociclib (first compound 2.53 µM) it was 0.212; with Vorinostat + Palbociclib (first compound 8 µM), 0.0703; with Vorinostat + Bortezomib (first compound 0.253 µM), 1.11; in the assay with Vorinostat + Bortezomib (first compound 0.8 µM), 1.1. Also, the relative viability with Vorinostat + Bortezomib (first compound 2.53 µM) amounted to 0.565; with Vorinostat + Bortezomib (first compound 8 µM) it was 0.0796; with Vorinostat + Foretinib (first compound 0.253 µM), 1.29; with Vorinostat + Foretinib (first compound 0.8 µM), 1.07; in the assay with Vorinostat + Foretinib (first compound 2.53 µM) it was 0.75; in the assay with Vorinostat + Foretinib (first compound 8 µM) it was 0.15. For the same cell line, the relative viability in the assay with Vorinostat + Pictilisib (first compound 0.253 µM) was determined as 0.543; with Vorinostat + Pictilisib (first compound 0.8 µM), 0.45; with Vorinostat + Pictilisib (first compound 2.53 µM), 0.24; with Vorinostat + Pictilisib (first compound 8 µM), 0.0767; with Vorinostat + Crizotinib (first compound 0.253 µM), 0.845; in the assay with Vorinostat + Crizotinib (first compound 0.8 µM), 0.665. Besides, the relative viability with Vorinostat + Crizotinib (first compound 2.53 µM) came to 0.297; with Vorinostat + Crizotinib (first compound 8 µM) it was 0.156.
Consider UMC-11, for which the relative viability with Vorinostat + Palbociclib (first compound 0.253 µM) worked out at 0.356; with Vorinostat + Palbociclib (first compound 0.8 µM) it was 0.233; with Vorinostat + Palbociclib (first compound 2.53 µM) it was 0.179; with Vorinostat + Palbociclib (first compound 8 µM) it was 0.116; with Vorinostat + Bortezomib (first compound 0.253 µM), 0.672; in the assay with Vorinostat + Bortezomib (first compound 0.8 µM), 0.56. In addition, the relative viability is 0.0652 with Vorinostat + Bortezomib (first compound 2.53 µM); 0.0503 with Vorinostat + Bortezomib (first compound 8 µM); 1.12 with Vorinostat + Foretinib (first compound 0.253 µM); 0.465 with Vorinostat + Foretinib (first compound 0.8 µM); 0.121 with Vorinostat + Foretinib (first compound 2.53 µM); 0.103 in the assay with Vorinostat + Foretinib (first compound 8 µM). For the same cell line, the relative viability with Vorinostat + Pictilisib (first compound 0.253 µM) was determined as 0.975; with Vorinostat + Pictilisib (first compound 0.8 µM) it was 0.29; with Vorinostat + Pictilisib (first compound 2.53 µM), 0.0923; with Vorinostat + Pictilisib (first compound 8 µM) it was 0.0756; with Vorinostat + Crizotinib (first compound 0.253 µM), 0.578; with Vorinostat + Crizotinib (first compound 0.8 µM), 0.481. Further, the figures for the relative viability with Vorinostat + Crizotinib (first compound 2.53 µM) and in the assay with Vorinostat + Crizotinib (first compound 8 µM) were 0.0587 and 0.0369, respectively.
